Experimental findings from US9174964B2, “AMPK-activating piperidinyloxy-substituted 2,3-dihydro-1H-indene-1-amine compounds and pharmaceutical compositions including the same” (Rigel Pharmaceuticals, Inc., priority 2007, dated 2015) are described below.

One may read the EC50 as the concentration at which the effect is half-maximal.

Counter-ions that a name gives are not always drawn.

One assay addresses AMPK. The assay can be described thus: AMPK activation, enzyme-linked immunosorbent assay. The format is biochemical. The settings on record: Table 2, AMPK activation, ELISA. For orientation: In an ELISA, binding on a coated surface is turned into a signal by an enzyme label.
Compound `O=C(NC1CCN(CCc2ccccc2)CC1)c1ccc(OC2CCN(c3ccc(C(F)(F)F)cc3)CC2)cn1` [Compound 36, N-(1-phenethylpiperidin-4-yl)-5-(1-(4-(trifluoromethyl)phenyl)piperidin-4-yloxy)picolinamide] displayed an EC50 of 500 to 1000 nM. The same measure, in the same setting: for `O=C(NC1CCN(Cc2ccc(F)cc2)CC1)c1cc(OC2CCN(c3ccc(C(F)(F)F)cc3)CC2)ccn1` [Compound 29, N-(1-(4-fluorobenzyl)piperidin-4-yl)-4-(1-(4-(trifluoromethyl)phenyl)piperidin-4-yloxy)picolinamide] the value was 100 to 500 nM; for `O=C(NC1CCN(Cc2ccncc2)CC1)c1ccnc(OC2CCN(c3ccc(C(F)(F)F)cc3)CC2)c1` [Compound 20, N-(1-(pyridin-4-ylmethyl)piperidin-4-yl)-2-(1-(4-(trifluoromethyl)phenyl)piperidin-4-yloxy)isonicotinamide], 500 to 1000 nM; for `CC(C)(C)OC(=O)N1CCC(NC(=O)c2ccc(OC3CCN(c4ccc(C(F)(F)F)cc4)CC3)nc2)CC1` [Compound 9, tert-butyl 4-(6-(1-(4-(trifluoromethyl)phenyl)piperidin-4-yloxy)nicotinamido) piperidine-1-carboxylate], 100 to 500 nM.

As for `O=C(O)c1ccc(CN2CCC(NC(=O)c3ccc(OC4CCN(c5ccc(C(F)(F)F)cc5)CC4)nc3)CC2)cc1` [Compound 46, 4-((4-(6-(1-(4-(trifluoromethyl)phenyl)piperidin-4-yloxy)nicotinamido)piperidin-1-yl)methyl)benzoic acid], the EC50 was 1000 to 5000 nM.

For `O=C(NC1CCN(Cc2cccnc2)CC1)c1ccc(OC2CCN(c3ccc(C(F)(F)F)cc3)CC2)cn1` [Compound 5, N-(1-(pyridin-3-ylmethyl)piperidin-4-yl)-5-(1-(4-(trifluoromethyl)phenyl)piperidin-4-yloxy)picolinamide], the EC50 is < 100 nM.

`O=C(NC1CCN(Cc2ccc3ccccc3c2)CC1)c1ccc(OC2CCN(c3ccc(C(F)(F)F)cc3)CC2)cn1` [Compound 37, N-(1-(naphthalen-2-ylmethyl)piperidin-4-yl)-5-(1-(4-(trifluoromethyl)phenyl)piperidin-4-yloxy)picolinamide] gave an EC50 of 500 to 1000 nM. Same read-out and setting: for `O=C(NC1CCN(Cc2ccncc2)CC1)c1cc(OC2CCN(c3ccc(C(F)(F)F)cc3)CC2)ccn1` [Compound 13, N-(1-(pyridin-4-ylmethyl)piperidin-4-yl)-4-(1-(4-(trifluoromethyl)phenyl)piperidin-4-yloxy)picolinamide] the value was 100 to 500 nM; for `O=C(NC1CCN(Cc2c[nH]cn2)CC1)c1ccc(OC2CCN(c3ccc(C(F)(F)F)cc3)CC2)cn1` [Compound 48, N-(1-((1H-imidazol-4-yl)methyl)piperidin-4-yl)-5-(1-(4-(trifluoromethyl)phenyl)piperidin-4-yloxy)picolinamide], 1000 to 5000 nM; for `O=C(NC1CCN(Cc2cccnc2)CC1)c1cncc(OC2CCN(c3ccc(C(F)(F)F)cc3)CC2)c1` [Compound 18, N-(1-(pyridin-3-ylmethyl)piperidin-4-yl)-5-(1-(4-(trifluoromethyl)phenyl)piperidin-4-yloxy)nicotinamide], < 100 nM.

Take `O=C(NC1CCN(Cc2ccc(F)cc2)CC1)c1ccc(OC2CCN(c3ccc(C(F)(F)F)cc3)CC2)nc1` [Compound 11, N-(1-(4-fluorobenzyl)piperidin-4-yl)-6-(1-(4-(trifluoromethyl)phenyl)piperidin-4-yloxy)nicotinamide]: the EC50 is < 100 nM.

The same assay, now with this note: Table 3, AMPK activation, ELISA.
Consider `CC(C)(C)OC(=O)N1CCC(NS(=O)(=O)c2ccc(OC3CCN(c4ccc(C(F)(F)F)cc4)CC3)nc2)CC1` [Compound 54, tert-butyl 4-(6-(1-(4-(trifluoromethyl)phenyl)piperidin-4-yloxy)pyridine-3-sulfonamido)piperidine-1-carboxylate], for which the EC50 lay within 1000 to 5000 nM. Same read-out and setting: as for `N#Cc1ccc(N2CCC(Oc3ccc(S(=O)(=O)NC4CCN(Cc5ccncc5)CC4)cn3)CC2)cc1` [Compound 52, N-(1-(pyridin-4-ylmethyl)piperidin-4-yl)-6-(1-(4-cyanophenyl)piperidin-4-yloxy)pyridine-3-sulfonamide], the figure is 100 to 500 nM; as for `O=S(=O)(NC1CCN(Cc2ccc(C(F)(F)F)cc2)CC1)c1ccc(OC2CCN(c3ccc(C(F)(F)F)cc3)CC2)nc1` [Compound 58, N-(1-(4-(trifluoromethyl)benzyl)piperidin-4-yl)-6-(1-(4-(trifluoromethyl)phenyl)piperidin-4-yloxy)pyridine-3-sulfonamide], < 100 nM. The same measure, in the same setting: for `N#Cc1ccc(CN2CCC(NS(=O)(=O)c3ccc(OC4CCN(c5ccc(C(F)(F)F)cc5)CC4)nc3)CC2)cc1` [Compound 56, N-(1-(4-cyanobenzyl)piperidin-4-yl)-6-(1-(4-(trifluoromethyl)phenyl)piperidin-4-yloxy)pyridine-3-sulfonamide] the value was 5000 to 50000 nM.

The assay is the same for the next values; noted with them: Table 4, AMPK activation, ELISA.
Consider `O=C(NC1CCN(Cc2cccnc2)CC1)c1cc2ccc(OC3CCN(c4ccc(C(F)(F)F)cc4)CC3)cc2o1` [Compound 96, N-(1-(pyridin-3-ylmethyl)piperidin-4-yl)-6-(1-(4-(trifluoromethyl)phenyl)piperidin-4-yloxy)benzofuran-2-carboxamide], for which the EC50 was < 100 nM.

Regarding `O=C(N[C@@H]1CCN(Cc2cccnc2)C1)c1cc2cc(OC3CCN(c4ccc(C(F)(F)F)cc4)CC3)ccc2o1` [Compound 123, (R)-N-(1-(pyridin-3-ylmethyl)pyrrolidin-3-yl)-5-(1-(4-(trifluoromethyl)phenyl)piperidin-4-yloxy)benzofuran-2-carboxamide], the EC50 fell in the range of 100 to 500 nM. Same read-out and setting: as for `CN(C(=O)c1cc2cc(OC3CCN(c4ccc(C(F)(F)F)cc4)CC3)ccc2o1)C1CCN(Cc2ccc(C(F)(F)F)cc2)CC1` [Compound 119, N-methyl-N-(1-(4-(trifluoromethyl)benzyl)piperidin-4-yl)-5-(1-(4-(trifluoromethyl)phenyl)piperidin-4-yloxy)benzofuran-2-carboxamide], the figure is < 100 nM. Still for that read-out and setting: as for `O=C(NC1CCN(S(=O)(=O)c2cccnc2)CC1)c1cc2ccc(OC3CCN(c4ccc(OC(F)(F)F)cc4)CC3)cc2o1` [Compound 108, N-(1-(pyridin-3-ylsulfonyl)piperidin-4-yl)-6-(1-(4-(trifluoromethoxy)phenyl)piperidin-4-yloxy)benzofuran-2-carboxamide], the figure is 100 to 500 nM; as for `N#Cc1ccc(CN2CCC(Oc3ccc4oc(C(=O)NC5CCN(Cc6ccccc6)CC5)cc4c3)CC2)cc1` [Compound 70, N-(1-benzylpiperidin-4-yl)-5-(1-(4-cyanobenzyl)piperidin-4-yloxy)benzofuran-2-carboxamide], < 100 nM; as for `CC(C)(C)OC(=O)N1CCC(NC(=O)c2cc3ccc(OC4CCN(c5ccc(C(F)(F)F)cc5)CC4)cc3o2)CC1` [Compound 82, tert-butyl 4-(6-(1-(4-(trifluoromethyl)phenyl)piperidin-4-yloxy)benzofuran-2-carboxamido)piperidine-1-carboxylate], 100 to 500 nM. Compound `O=C(NC1CCN(Cc2ccccc2)CC1)c1cc2cc(OC3CCN(Cc4ccc(Cl)cc4)CC3)ccc2o1` [Compound 72, N-(1-benzylpiperidin-4-yl)-5-(1-(4-chlorobenzyl)piperidin-4-yloxy)benzofuran-2-carboxamide] returned an EC50 of 100 to 500 nM.

On to `O=C(NC1CCNCC1)c1cc2ccc(OC3CCN(c4ccc(C(F)(F)F)cc4)CC3)cc2o1` [Compound 84, N-(piperidin-4-yl)-6-(1-(4-(trifluoromethyl)phenyl)piperidin-4-yloxy)benzofuran-2-carboxamide hydrochloride], for which the EC50 lay in the range of 10000 to 50000 nM.

For `O=C(NC1CCN(Cc2ccncc2)CC1)c1cc2ccc(OC3CCN(c4ccc(OC(F)(F)F)cc4)CC3)cc2o1` [Compound 88, N-(1-(pyridin-4-ylmethyl)piperidin-4-yl)-6-(1-(4-(trifluoromethoxy)phenyl)piperidin-4-yloxy)benzofuran-2-carboxamide], the EC50 was < 100 nM.

In turn, `O=C(NC1CCN(Cc2ccccc2)CC1)c1cc2cc(OC3CCN(Cc4ccc(F)c(F)c4)CC3)ccc2o1` [Compound 74, N-(1-benzylpiperidin-4-yl)-5-(1-(3,4-difluorobenzyl)piperidin-4-yloxy)benzofuran-2-carboxamide] gave an EC50 of 100 to 500 nM. Compound `O=C(N[C@@H]1CCN(S(=O)(=O)c2cccnc2)C1)c1cc2cc(OC3CCN(c4ccc(C(F)(F)F)cc4)CC3)ccc2o1` [Compound 126, (R)-N-(1-(pyridin-3-ylsulfonyl)pyrrolidin-3-yl)-5-(1-(4-(trifluoromethyl)phenyl)piperidin-4-yloxy)benzofuran-2-carboxamide] had an EC50 of 1000 to 10000 nM. Same read-out and setting: as for `Cc1c(C(=O)NC2CCN(Cc3ccc(C#N)cc3)CC2)oc2cc(OC3CCN(c4ccc(C(F)(F)F)cc4)CC3)ccc12` [Compound 64, N-(1-(4-cyanobenzyl)piperidin-4-yl)-3-methyl-6-(1-(4-(trifluoromethyl)phenyl)piperidin-4-yloxy)benzofuran-2-carboxamide], the figure is < 100 nM.

The assay is the same for the next values; noted with them: Table 5, AMPK activation, ELISA.
The compound `CC(C)(C)OC(=O)N1CCC(NC(=O)c2sc3cc(OC4CCN(c5ccc(C(F)(F)F)cc5)CC4)ccc3c2Cl)CC1` [Compound 147, tert-butyl 4-(3-chloro-6-(1-(4-(trifluoromethyl)phenyl)piperidin-4-yloxy)benzo[b]thiophene-2-carboxamido)piperidine-1-carboxylate] had an EC50 of 1000 to 50000 nM. In the case of `CC(C)(C)OC(=O)N1CCC(NC(=O)c2cc3cc(OC4CCN(c5ccc(C(F)(F)F)cc5)CC4)ccc3s2)CC1` [Compound 149, tert-butyl 4-(5-(1-(4-(trifluoromethyl)phenyl)piperidin-4-yloxy)benzo[b]thiophene-2-carboxamido)piperidine-1-carboxylate], the EC50 is < 100 nM.

The assay is the same for the next values; noted with them: Table 6, AMPK activation, ELISA.
`Fc1ccc(CN2CCC(NC3CCc4cc(OC5CCN(c6ccc(C(F)(F)F)cc6)CC5)ccc43)CC2)cc1` (stereo not shown) [Compound 159, 1-(4-fluorobenzyl)-N-(5-(1-(4-(trifluoromethyl)phenyl)piperidin-4-yloxy)-2,3-dihydro-1H-inden-1-yl)piperidin-4-amine] came in with an EC50 of 500 to 1000 nM.

Consider `FC(F)(F)c1ccc(N2CCC(Oc3ccc4c(c3)CCC4NC3CCNCC3)CC2)cc1` (stereo not shown) [Compound 157, N-(5-(1-(4-(trifluoromethyl)phenyl)piperidin-4-yloxy)-2,3-dihydro-1H-inden-1-yl)piperidin-4-amine], for which the EC50 is > 100000 nM.
